Like-named read-outs stand apart in the source and are kept apart here.
Legend:
c-KIT kinase (uKIT) = c-KIT kinase (uKIT) (Homo sapiens (Human), UniProt P10721); assay: Biochemical Assay for uKIT (coupled pyruvate kinase/lactate dehydrogenase assay); settings: Inhibition of biochemical activity of uKIT kinase; 1 mM ATP
Method in brief: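 IC50 from percent inhibition of reaction rate over 2-3 h, relative to no-compound and known-inhibitor controls. KIT enzyme (16 nM or 4.36 nM, two sequences) ran with 1 mM ATP and 0.7 mg/mL PE4Y in Tris pH 7.5, 30° C; ATP turnover coupled to NADH loss at 340 nm.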

Ba/F3 KIT mutant cells = assay: Ba/F3 mutant KIT Cell Proliferation Assays (resazurin); assay type: cell-based; settings: Mus musculus, BaF3
Method in brief: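 IC50 values come from resazurin fluorescence (ex 540, em 600) after 5 h dye exposure, added as a 440 μM solution. Cells were IL-3-independent Ba/F3 expressing mutant KIT from a lentiviral vector, puromycin-selected.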

GIST 430 cells = assay: GIST 430 Cell Proliferation Assay (resazurin); assay type: cell-based; settings: Homo sapiens; GIST430 cell proliferation
Method in brief: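 Five thousand cells per well were exposed to serially diluted compound in complete growth medium for 115 h at 37 degrees Celsius, 5% CO2. Resazurin was then added for a further 5 h, fluorescence read at 540 nm excitation/600 nm emission, and IC50 values calculated.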

[1] = Ba/F3 KIT AYdup-V654A mutant cell proliferation, read-out: AYdup-V654A IC50
[2] = Ba/F3 KIT exon11del-V654A mutant cell proliferation, read-out: exon11del-V654A IC50
[3] = Ba/F3 KIT exon11del-Y823D mutant cell proliferation, read-out: exon11del-Y823D IC50
[4] = Ba/F3 KIT AYdup mutant cell proliferation, read-out: AYdup IC50
[5] = Ba/F3 KIT AYdup-D816G mutant cell proliferation, read-out: AYdup-D816G IC50

c-KIT kinase (uKIT), sequence (P10721 other isoform, or with tags, fused parts or gaps): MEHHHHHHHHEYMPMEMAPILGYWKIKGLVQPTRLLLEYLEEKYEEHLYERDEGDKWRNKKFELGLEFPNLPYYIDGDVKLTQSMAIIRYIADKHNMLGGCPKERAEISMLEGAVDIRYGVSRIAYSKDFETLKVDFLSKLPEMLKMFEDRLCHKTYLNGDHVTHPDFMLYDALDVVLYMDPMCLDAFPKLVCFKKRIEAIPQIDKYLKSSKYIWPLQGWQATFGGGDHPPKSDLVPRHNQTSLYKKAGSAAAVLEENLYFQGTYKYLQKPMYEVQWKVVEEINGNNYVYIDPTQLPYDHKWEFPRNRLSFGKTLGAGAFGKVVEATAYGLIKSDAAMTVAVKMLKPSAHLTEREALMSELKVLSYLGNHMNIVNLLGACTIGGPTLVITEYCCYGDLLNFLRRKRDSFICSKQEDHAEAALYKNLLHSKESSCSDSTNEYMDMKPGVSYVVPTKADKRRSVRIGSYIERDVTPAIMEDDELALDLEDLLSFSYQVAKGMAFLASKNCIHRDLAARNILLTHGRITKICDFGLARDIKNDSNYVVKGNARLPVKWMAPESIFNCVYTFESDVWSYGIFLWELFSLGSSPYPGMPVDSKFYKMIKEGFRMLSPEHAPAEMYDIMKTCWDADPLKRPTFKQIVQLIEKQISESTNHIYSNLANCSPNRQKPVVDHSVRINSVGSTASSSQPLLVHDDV

Row | Structure (SMILES) | IC50 (c-KIT kinase (uKIT)) | IC50 (Ba/F3 KIT mutant cells; [1]) | IC50 (Ba/F3 KIT mutant cells; [2]) | IC50 (Ba/F3 KIT mutant cells; [3]) | IC50 (Ba/F3 KIT mutant cells; [4]) | IC50 (Ba/F3 KIT mutant cells; [5]) | IC50 (GIST 430 cells)
1 | COCCOc1cc(F)c2c(Nc3ccc(NC(=O)CC(=O)N4CCC(C(F)(F)F)C4)cc3)ncnc2c1 (stereo not shown) [Example 153] | 10 to 100 nM | 10 to 100 nM | 100 to 1000 nM | 100 to 1000 nM |  |  | 10 to 100 nM
2 | COCCOc1cc(F)c2c(Nc3ccc(NC(=O)CCC4CCN(C)CC4)cc3)ncnc2c1 [Example 62] | > 1000 nM | 100 to 1000 nM | 100 to 1000 nM |  |  |  | > 1000 nM
3 | COCCOc1cc(F)c2c(Nc3ccc(NC(=O)CC(=O)NCCC(C)(C)F)cc3)ncnc2c1 [Example 119] | 10 to 100 nM | 10 to 100 nM | 10 to 100 nM | 100 to 1000 nM |  |  | 10 to 100 nM
4 | COCCOc1cc(F)c2c(Nc3ccc(NC(=O)NCCC(C)(C)F)nc3)ncnc2c1 [Example 29] | 100 to 1000 nM | > 1000 nM | > 1000 nM | > 1000 nM |  | > 1000 nM | 100 to 1000 nM
5 | COCCOc1cc(F)c2c(Nc3ccc(NC(=O)CC(=O)N4CCC(F)(F)CC4)cc3)ncnc2c1 [Example 164] | 10 to 100 nM | 100 to 1000 nM | 100 to 1000 nM | 100 to 1000 nM |  |  | 10 to 100 nM
6 | COCCOc1cc(F)c2c(Nc3ccc(NC(=O)CC(=O)N4CCC(C)(C)C4)cc3)ncnc2c1 [Example 141] | 10 to 100 nM | 10 to 100 nM | ≤ 10 nM | 10 to 100 nM | ≤ 10 nM | 10 to 100 nM | 10 to 100 nM
7 | COCCOc1cc(F)c2c(Nc3ccc(NC(=O)CC(=O)N4CCCC[C@H]4C(F)(F)F)cc3)ncnc2c1 [Example 171] | 10 to 100 nM | 10 to 100 nM | 10 to 100 nM | ≤ 10 nM |  |  | 10 to 100 nM
8 | COCCOc1cc(F)c2c(Nc3ccc(NC(=O)CC(=O)N4C[C@@H](C)O[C@@H](C)C4)cc3)ncnc2c1 [Example 179] | 100 to 1000 nM | 100 to 1000 nM | 100 to 1000 nM | 100 to 1000 nM |  |  | 100 to 1000 nM
9 | COCCOc1cc(F)c2c(Nc3ccc(NC(=O)C4(C(=O)N(C)CC(C)C)CC4)cc3)ncnc2c1 [Example 72] | > 1000 nM | > 1000 nM | 100 to 1000 nM |  |  |  | 100 to 1000 nM
10 | COCCOc1cc(F)c2c(Nc3ccc(NC(=O)C4(C(=O)NCC(C)(C)C)CC4)cc3)ncnc2c1 [Example 44] | 10 to 100 nM | 100 to 1000 nM | 100 to 1000 nM | 100 to 1000 nM | 10 to 100 nM | 100 to 1000 nM | 100 to 1000 nM
11 | COCCOc1cc(F)c2c(Nc3ccc(NC(=O)CC(=O)NCC4CCCC4)cc3)ncnc2c1 [Example 79] | 10 to 100 nM | 10 to 100 nM | 10 to 100 nM | 100 to 1000 nM |  |  | 10 to 100 nM
12 | COCCOc1cc(F)c2c(Nc3ccc(NC(=O)CC(=O)NCC(C)(C)F)cc3)ncnc2c1 [Example 89] | 10 to 100 nM | 10 to 100 nM | 10 to 100 nM | 100 to 1000 nM |  |  | 10 to 100 nM
13 | COCCOc1cc(F)c2c(Nc3ccc(NC(=O)CC(=O)NCC(C)C)cc3)ncnc2c1 [Example 81] | 10 to 100 nM | 10 to 100 nM | 10 to 100 nM | > 1000 nM |  |  | 10 to 100 nM
14 | COCCOc1cc(F)c2c(Nc3ccc(NC(=O)COCC(F)(F)F)cc3)ncnc2c1 [Example 48] | 100 to 1000 nM | 100 to 1000 nM | 100 to 1000 nM | 100 to 1000 nM | 10 to 100 nM | 100 to 1000 nM | 100 to 1000 nM
15 | COCCOc1cc(F)c2c(Nc3ccc(NC(=O)CC(=O)NCC4(C#N)CC4)cc3)ncnc2c1 [Example 98] | 10 to 100 nM | 100 to 1000 nM | 10 to 100 nM | > 1000 nM |  |  | 100 to 1000 nM
16 | COCCOc1cc(F)c2c(Nc3ccc(NC(=O)CC(=O)NCC4CC(F)(F)C4)cc3)ncnc2c1 [Example 115] | 10 to 100 nM | 10 to 100 nM | 10 to 100 nM | 100 to 1000 nM |  |  | 10 to 100 nM
17 | COCCOc1cc(F)c2c(Nc3ccc(NC(=O)CC(=O)NC4COC4)cc3)ncnc2c1 [Example 93] | 100 to 1000 nM | > 1000 nM | 100 to 1000 nM |  |  |  | > 1000 nM
18 | COCCOc1cc(F)c2c(Nc3ccc(NC(=O)CC4CCN(C)CC4)cc3)ncnc2c1 [Example 40] | > 1000 nM |  | > 1000 nM |  |  |  | > 1000 nM
19 | CC(C)(F)CCNC(=O)Nc1ccc(Nc2ncnc3cc(OC[C@@H]4CCOC4)cc(F)c23)cc1 [Example 149] | ≤ 10 nM | 10 to 100 nM | 10 to 100 nM | 10 to 100 nM |  |  | 10 to 100 nM
20 | CC(C)(F)CCNC(=O)Nc1ccc(Nc2ncnc3cc(OC4COC4)cc(F)c23)cc1 [Example 175] | ≤ 10 nM | 10 to 100 nM | 10 to 100 nM | 10 to 100 nM |  |  | 10 to 100 nM
21 | COCCOc1cc(F)c2c(Nc3ccc(NC(=O)CC(=O)NC4CC5(CCC5)C4)cc3)ncnc2c1 [Example 135] | ≤ 10 nM | ≤ 10 nM | ≤ 10 nM | 10 to 100 nM |  |  | ≤ 10 nM

Now from value to compound, other results behind:

Row | IC50 (c-KIT kinase (uKIT)) | IC50 (Ba/F3 KIT mutant cells; [1]) | IC50 (Ba/F3 KIT mutant cells; [2]) | IC50 (Ba/F3 KIT mutant cells; [3]) | IC50 (Ba/F3 KIT mutant cells; [4]) | IC50 (Ba/F3 KIT mutant cells; [5]) | Structure (SMILES) | IC50 (GIST 430 cells)
22 | ≤ 10 nM | 10 to 100 nM | ≤ 10 nM | 10 to 100 nM | ≤ 10 nM | ≤ 10 nM | COCCOc1cc(F)c2c(Nc3ccc(NC(=O)NCCC(C)(C)OC)cc3)ncnc2c1 [Example 10] | ≤ 10 nM
23 | ≤ 10 nM | ≤ 10 nM | 10 to 100 nM | 10 to 100 nM | ≤ 10 nM | 10 to 100 nM | CC(C)(F)CCNC(=O)Nc1ccc(Nc2ncnc3cc(OC[C@H]4CCCO4)cc(F)c23)cc1 [Example 161] | 10 to 100 nM
24 | ≤ 10 nM | > 1000 nM | ≤ 10 nM | 100 to 1000 nM |  |  | COCCOc1cc(F)c2c(Nc3ccc(NC(=O)CC(=O)NCC4CCC4)cc3)ncnc2c1 [Example 90] | 10 to 100 nM
25 | ≤ 10 nM | ≤ 10 nM | ≤ 10 nM | 10 to 100 nM |  |  | COCCOc1cc(F)c2c(Nc3ccc(NC(=O)NCC=C(C)C)cc3)ncnc2c1 [Example 133] | 10 to 100 nM
26 | ≤ 10 nM | 10 to 100 nM | 10 to 100 nM | 10 to 100 nM |  |  | CN1CC[C@@H](Oc2cc(F)c3c(Nc4ccc(NC(=O)NCCC(C)(C)F)cc4)ncnc3c2)C1 [Example 173] | 10 to 100 nM
27 | ≤ 10 nM | 10 to 100 nM | ≤ 10 nM | 100 to 1000 nM |  |  | COCCOc1cc(F)c2c(Nc3ccc(NC(=O)CC(=O)NCC4(C)CC4)cc3)ncnc2c1 [Example 85] | ≤ 10 nM
28 | ≤ 10 nM | 10 to 100 nM | 10 to 100 nM | 10 to 100 nM |  |  | CC(C)(F)CCNC(=O)Nc1ccc(Nc2ncnc3cc(OC4CCC4)cc(F)c23)cc1 [Example 174] | 100 to 1000 nM
29 | ≤ 10 nM | 10 to 100 nM | 10 to 100 nM | 100 to 1000 nM |  | 10 to 100 nM | COCCOc1cc(F)c2c(Nc3ccc(NC(=O)NC4CCC(C(F)(F)F)CC4)cc3)ncnc2c1 (stereo not shown) [Example 15] | 10 to 100 nM
30 | ≤ 10 nM | 10 to 100 nM | 10 to 100 nM | 100 to 1000 nM |  |  | COC[C@@H](C)Oc1cc(F)c2c(Nc3ccc(NC(=O)NCCC(C)(C)F)cc3)ncnc2c1 [Example 155] | 100 to 1000 nM
31 | ≤ 10 nM | 10 to 100 nM | ≤ 10 nM | 10 to 100 nM |  | ≤ 10 nM | COCCOc1cc(F)c2c(Nc3ccc(NC(=O)NC4CCC(C)(C)C4)cc3)ncnc2c1 (stereo not shown) [Example 34] | 10 to 100 nM
32 | ≤ 10 nM | 10 to 100 nM | 10 to 100 nM | 100 to 1000 nM |  |  | CC(C)(F)CCNC(=O)Nc1ccc(Nc2ncnc3cc(OC[C@H]4CCOC4)cc(F)c23)cc1 [Example 151] | 10 to 100 nM
33 | ≤ 10 nM | 10 to 100 nM | 10 to 100 nM | 100 to 1000 nM | ≤ 10 nM | 10 to 100 nM | COCCOc1cc(F)c2c(Nc3ccc(NC(=O)NCCC(C)(C)F)cc3)ncnc2c1 [Example 2, 1-(3-fluoro-3-methylbutyl)-3-(4-((5-fluoro-7-(2-methoxyethoxy)quinazolin-4-yl)amino)phenyl)urea] | 10 to 100 nM
34 | ≤ 10 nM | 10 to 100 nM | 10 to 100 nM | 10 to 100 nM |  |  | CC(C)(F)CCNC(=O)Nc1ccc(Nc2ncnc3cc(OCCCN4CCOCC4)cc(F)c23)cc1 [Example 195] | ≤ 10 nM
35 | ≤ 10 nM | 10 to 100 nM | 10 to 100 nM | 100 to 1000 nM | ≤ 10 nM | 10 to 100 nM | COCCOc1cc(F)c2c(Nc3ccc(NC(=O)NC4CC(C)(C)C4)cc3)ncnc2c1 [Example 8] | 10 to 100 nM
36 | ≤ 10 nM | 10 to 100 nM | 10 to 100 nM | 10 to 100 nM | ≤ 10 nM | 10 to 100 nM | COCCOc1cc(F)c2c(Nc3ccc(NC(=O)NCCOC(F)(F)F)cc3)ncnc2c1 [Example 42] | 10 to 100 nM
37 | ≤ 10 nM | 10 to 100 nM | ≤ 10 nM | 10 to 100 nM |  |  | CC(C)(F)CCNC(=O)Nc1ccc(Nc2ncnc3cc(OCC4CCOCC4)cc(F)c23)cc1 [Example 123] | 10 to 100 nM

From US20240116877A1, “KIT KINASE INHIBITORS AND METHODS OF USE THEREOF” (Deciphera Pharmaceuticals, LLC, priority 2021, published 2024)
